Where two headings read alike, the source gives them in different places. One block for each compound: values may come before it.
How the values were obtained:
PDE4 = tested on: PDE4
Experimental: HEK293 cell culture and transfection: HEK293 cells were cultured in DMEM (Gibco life technologies) containing 10% FBS, 100 units/ml penicillin-streptomycin, and 2 mM L-glutamine. Cell transfections were performed with the PIE Transfection reagent (Qiagen) according to manufacturer's instructions.
Forster Resonance Energy Transfer (FRET):Measurements to track PKA activity. […] Images were acquired using a Zeiss AXIO inverted fluorescence microscope (Carl Zeiss micrscopy, LLC, Thomwood, N.Y.) with a 40× oil-emersion objective lens and a charge-coupled device camera controlled by Metafluor software (Molecular Devices, Sunnyvale, Calif.). […] Images were subjected to background subtraction, and were acquired every 30 seconds with exposure time of 200 ms. The donor/acceptor FRET ratio was calculated and normalized to the ratio value of baseline.
Statistics: Statistical analysis was performed using GraphPad Prism 6 software (La Jolla, Calif.). Results are shown as mean±SEM and were analyzed by one way ANOVA with post hoc Bonferroni's multiple compression test.

[1] = tested on: inflammatory pain (rat TWL-LPS model); details: for TWL threshold time course (analgesic effect): over 4 h
Experimental: Control animals received a 50 μl saline intraplantar sham injection in the right back paw.
Student t-test was performed in Microsoft Excel with a significance of P<0.05. Results are shown as mean±SD.

in vivo = details: rat
Experimental: All the animal experiments were performed according to the protocols approved by the Animal Use and Care Committee of University of California-Davis. Male Sprague-Dawley rats (n=4, 8 week old, 250-300 g) were used in the pharmacokinetic study of sEH/PDE4 dual inhibitors. […] Inhibitor was dissolved in 100% polyethylene glycol 300 to form a clear solution. […] Each blood sample was immediately transferred to a tube containing […] of water and mixed by Vortex for 1 min, all samples were stored at −80° C. until analysis.

[2] = over the following days post treatment
[3] = rat TWL-LPS model, 1 mg/kg oral, 0.5 h
[4] = rat TWL-LPS model, 3 mg/kg oral, 0.5 h
[5] = male, Sprague-Dawley, in vivo, 0.3 mg/kg
[6] = male, Sprague-Dawley, po, 3 mg/kg
[7] = male, Sprague-Dawley, po, 30 mg/kg
[8] = male, Sprague-Dawley, po, 100 mg/kg

Compound: COc1ccc(CNC(=O)C2CCNCC2)c(C(F)(F)F)c1 [Compound 22, N-(4-Methoxy-2-(trifluoromethyl)benzyl)piperidine-4-carboxamide]
% cAMP increase rel. to Rolipram @ 1 μM (PDE4): higher cAMP increase than Rolipram
Percentage change (PDE4): 138%

Compound: CCC(=O)N1CCC(C(=O)NCc2ccc(OC)cc2C(F)(F)F)CC1 [Compound 23/RBH61, N-(4-methoxy-2-(trifluoromethyl)benzyl)-1-propionylpiperidine-4-carboxamide]
TWL threshold in naïve animals (analgesic effect) ([1]; naïve rats, no LPS): no analgesic effect
TWL threshold at 0.5 h (pain relief vs LPS control) [1, 3]: significant pain relief
TWL threshold time course (analgesic effect) ([1]; rat TWL-LPS model, 1 mg/kg oral): pain relief
TWL threshold at 0.5 h (pain relief vs LPS control) [1, 4]: significant pain relief
TWL threshold time course (analgesic effect) ([1]; rat TWL-LPS model, 3 mg/kg oral): pain relief
analgesic effect compared to single target treatments and their combination ([1]; rat TWL-LPS model, 3 mg/kg, 0.5 h): significantly higher
concentration at 0 h (in vivo; [5]): 0 nM
concentration at 1 h (in vivo; [5]): 40 ± 12 nM
concentration at 2 h (in vivo; [5]): 25 ± 6 nM
concentration at 8 h (in vivo; [5]): 0 nM
concentration at 12 h (in vivo; [5]): 0 nM
concentration at 24 h (in vivo; [5]): 0 nM
concentration at 48 h (in vivo; [5]): 0 nM
concentration at 0 h (in vivo; [6]): 0 nM
concentration at 1 h (in vivo; [6]): 400 ± 15 nM
concentration at 2 h (in vivo; [6]): 120 ± 7 nM
concentration at 4 h (in vivo; [6]): 0 nM
concentration at 8 h (in vivo; [6]): 0 nM
concentration at 12 h (in vivo; [6]): 0 nM
concentration at 24 h (in vivo; [6]): 0 nM
concentration at 48 h (in vivo; [6]): 0 nM
time until compound is cleared from the blood (in vivo; [6]): 4 h
concentration at 0 h (in vivo; [7]): 0 nM
concentration at 1 h (in vivo; [7]): 805 nM
concentration at 2 h (in vivo; [7]): 527 nM
concentration at 8 h (in vivo; [7]): 29 nM
concentration at 12 h (in vivo; [7]): 0 nM
concentration at 24 h (in vivo; [7]): 0 nM
concentration at 48 h (in vivo; [7]): 0 nM
concentration at 0 h (in vivo; [8]): 0 nM
concentration at 1 h (in vivo; [8]): 1380 nM
concentration at 2 h (in vivo; [8]): 923 nM
concentration at 4 h (in vivo; [8]): 477 nM
concentration at 8 h (in vivo; [8]): 254 nM
concentration at 12 h (in vivo; [8]): 0 nM
concentration at 24 h (in vivo; [8]): 0 nM
concentration at 48 h (in vivo; [8]): 0 nM
bioavailability among the cassette compounds (in vivo; cassette 0.3 mg/kg PO): best bioavailability
time after which compound is cleared from plasma (in vivo; cassette 0.3 mg/kg PO): 4 h
urine excretion [2]: increase in urine excretion

concentration at 0 h (in vivo; [5]): 0 nM
concentration at 0.5 h (in vivo; [5]): 4 ± 1.3 nM
concentration at 1 h (in vivo; [5]): 2 ± 0.3 nM
concentration at 2 h (in vivo; [5]): 2 ± 0.3 nM
concentration at 4 h (in vivo; [5]): 2 ± 0.2 nM
concentration at 8 h (in vivo; [5]): 1 ± 0.1 nM
concentration at 12 h (in vivo; [5]): 1 ± 0.2 nM
concentration at 24 h (in vivo; [5]): 0.3 ± 0.01 nM
concentration at 48 h (in vivo; [5]): 0 nM
plasma concentration reached (in words) (in vivo; cassette 0.3 mg/kg PO): one digit nM
Compound: COc1ccc(CNC(=O)c2cccc(OC3CCCC3)c2)c(C(F)(F)F)c1 [Compound 19, 3-(Cyclopentyloxy)-N-(4-methoxy-2-(trifluoromethyl)benzyl)benzamide]
Percentage change (PDE4): 147%

concentration at 0 h (in vivo; [5]): 0 nM
concentration at 1 h (in vivo; [5]): 0 nM
concentration at 2 h (in vivo; [5]): 0 nM
concentration at 4 h (in vivo; [5]): 0 nM
concentration at 8 h (in vivo; [5]): 0 nM
concentration at 12 h (in vivo; [5]): 0 nM
concentration at 24 h (in vivo; [5]): 0 nM
concentration at 48 h (in vivo; [5]): 0 nM
Compound: COc1ccc(CNC(=O)c2ccc(OC)c(OC3CCCC3)c2)c(C(F)(F)F)c1 [Compound 1, 3-(cyclopentyloxy)-4-methoxy-N-(4-methoxy-2-(trifluoromethyl)benzyl)benzamide]
Percentage change (PDE4): 240%

Compound: CCCC(=O)N1CCC(C(=O)NCc2ccc(OC)cc2C(F)(F)F)CC1 [Compound 24, 1-Butyryl-N-(4-methoxy-2-(trifluoromethyl)benzyl)piperidine-4-carboxamide]
Percentage change (PDE4): 110%

Compound: TPPU [reference compound]
TWL threshold at 0.5 h (pain relief vs LPS control) [1, 3]: do not result in an equal analgesic effect
TWL threshold at 0.5 h (pain relief vs LPS control) [1, 4]: significant pain relief
% cAMP increase rel. to Rolipram @ 1 μM (PDE4): 40 ± 10%
Percentage change (PDE4): 37%
mean FRET ratio change (PDE4): 1.015

Compound: COc1ccc(CNC(=O)C2CCN(C(=O)C3CC3)CC2)c(C(F)(F)F)c1 [Compound 28, 1-(cyclopropanecarbonyl)-N-(4-methoxy-2-(trifluoromethyl)benzyl)piperidine-4-carboxamide]
% cAMP increase rel. to Rolipram @ 1 μM (PDE4): 230 ± 15%

Compound: CCN1CCC(C(=O)NCc2ccc(OC)cc2C(F)(F)F)CC1 [Compound 26, 1-ethyl-N-(4-methoxy-2-(trifluoromethyl)benzyl)piperidine-4-carboxamide]
Percentage change (PDE4): 62%
